Data from patent publication US8895743B2, “Methysergide derivatives” (Map Pharmaceuticals, Inc., priority 2012, dated 2014).

Assays:
Adrenergic α2B = biological target: T1, Adrenergic α2B (Homo sapiens, UniProt P18089); experiment: GTPγ[35S] assay, adrenergic α2B; type: biochemical; conditions: CHO-K1 human receptor membranes, antagonist mode; read-out: Activity (Antagonism: IC50), Adrenergic a2B
T1 construct: expressed in transfected cells; host or cells: CHO-K1 (membrane extracts)
Protocol: (§1) Receptor agonist/[…] assays were performed using 2-CF3-sergide. Table 1 summarizes the cell lines (CHO-K1/HEK293 transfected with relevant human receptor) and the assays performed to detect any agonist or antagonist activity.
(§2) GTPγS studies were conducted to monitor agonist activity for 8′OH-2CF3-dihydroergotamine (8′OH-2CF3-DHE) against the receptors indicated in Table 1 above. Reagents used were the following: Assay buffer (20 mM HEPES, pH 7.4; 100 mM NaCl; 10 μg/mL saponin; 30 mM MgCl2); Membranes (recombinant human receptor membrane extracts were thawed on ice and diluted in assay buffer to give 1000 μg/mL ([…]) and kept on ice); GDP (diluted in assay buffer to give 30 μM solution (3 μM final concentration); beads (PVT-WGA (Amersham, RPNQ001), diluted in assay buffer at 25 mg/mL (0.25 mg/10 μL)); GTPγ^35S (Perkin Elmer, NEG030X), diluted in assay buffer to give 0.1 nM (final concentration); and ligand (agonist/antagonist diluted in assay buffer).
(§3) Membranes were mixed with GDP (1:1) and incubated for at least 15 minutes on ice. In parallel GTPγ^35S was mixed with the beads (1:1) just before starting the reaction. […] The plates were then centrifuged for 10 minutes at 2000 rpm and incubated at room temperature for 1 hour and counted for 1 min/well with a Perkin Elmer TopCount reader.

Dopamine D4 = biological target: T2, Dopamine D4 (Homo sapiens, UniProt P21917); experiment: GTPγ[35S] assay, dopamine D4; type: biochemical
T2 construct: expressed in transfected cells; host or cells: CHO-K1 (membrane extracts)
T2 sequence (P21917 whole entry): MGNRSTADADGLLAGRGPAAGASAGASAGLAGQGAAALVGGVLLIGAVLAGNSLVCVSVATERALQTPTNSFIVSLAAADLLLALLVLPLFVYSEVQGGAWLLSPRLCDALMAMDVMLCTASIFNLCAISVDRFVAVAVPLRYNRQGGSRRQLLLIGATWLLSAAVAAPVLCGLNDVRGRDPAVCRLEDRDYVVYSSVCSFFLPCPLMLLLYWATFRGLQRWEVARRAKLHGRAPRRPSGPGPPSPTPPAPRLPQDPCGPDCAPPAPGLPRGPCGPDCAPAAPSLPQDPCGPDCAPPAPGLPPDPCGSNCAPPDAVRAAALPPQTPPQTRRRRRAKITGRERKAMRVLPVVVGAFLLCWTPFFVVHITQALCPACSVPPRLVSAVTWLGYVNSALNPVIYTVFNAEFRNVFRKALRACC
Protocol: as §1, §2, §3

Serotonin 5-HT2A = biological target: T3, Serotonin 5-HT2A (Homo sapiens, UniProt P28223); experiment: Aequorin assay, serotonin 5-HT2A; type: cell-based; conditions: CHO-K1 mAeq Gα16, human receptor, agonist mode; read-out: Activity (Agonism: EC50), 5-HT2A
T3 construct: expressed in transfected cells; host or cells: CHO-K1 mAeq Gα16
Protocol: as §1
(§4) Aequorin assays were conducted to monitor activity for 8′OH-2CF3-dihydroergotamine (8′OH-2CF3-DHE) against the receptors indicated in Table 1 above (except for mGlu3 and mGlu5). CHO-K1 cells coexpressing mitochondrial apoaequorin and the recombinant human receptor of interest were grown to mid-log phase in culture media without antibiotics and then detached with PBS-EDTA, centrifuged and resuspended in assay buffer (DMEM/HAM's F12 with HEPES, without phenol red+0.1% BSA, protease free) at a concentration of 1×10^6 cell/mL. […]
(§5) 50 μL of the cell suspension was mixed with 50 μL of test or reference agonist in a 96-well plate. The resulting emission of light was recorded using Hamamatsu Functional Drug Screening System 6000 (FDSS 6000) luminometer. […]
(§6) To standardize the emission of recorded light (and determine of the “100% signal”) across plates and across different experiments, some wells contained 100 μM digitonin or a saturating concentration of ATP (20 μM).

Serotonin 5-HT1B = biological target: T4, Serotonin 5-HT1B (Homo sapiens, UniProt P28222); experiment: GTPγ[35S] assay, serotonin 5-HT1B; type: biochemical; conditions: CHO-K1 human receptor membranes, agonist mode; read-out: Activity (Agonism: EC50), 5-HT1B
T4 construct: expressed in transfected cells; host or cells: CHO-K1 (membrane extracts)
Protocol: as §1, §2, §3

Serotonin 5-HT1F = biological target: T5, Serotonin 5-HT1F (Homo sapiens, UniProt P30939); experiment: cAMP HTRF assay, serotonin 5-HT1F; type: cell-based; conditions: CHO-K1, human receptor, agonist mode; read-out: Activity (Agonism: EC50), 5-HT1F
T5 construct: expressed in transfected cells; host or cells: CHO-K1
Protocol: as §1
(§7) cAMP HTRF (Gs) studies were conducted to monitor activity for 8′OH-2CF3-dihydroergotamine (8′OH-2CF3-DHE) against the receptors indicated in Table 1 above. […] Lysis buffer was added and after a 1 hour incubation, cAMP concentrations was determined according to the manufacturer specification with the HTRF kit. […] Lysis buffer was added and after a 1 hour incubation, cAMP concentrations were determined according to the manufacturer specification, with the HTRF kit.
as §7, with “(Gi)” for “(Gs)”

Neurokinin (NK1/NK2/NK3) = experiment: Aequorin assays, neurokinin receptors; type: cell-based; conditions: CHO-AEQ, human receptors, antagonist mode; cell names OP2; read-out: Activity (Antagonism: IC50), OP2, in row Neurokinin (NK1/NK2/NK3)
Protocol: as §1, §4, §5, §6

Dopamine D2L = biological target: T6, Dopamine D2L (Homo sapiens, UniProt P14416); experiment: GTPγ[35S] assay, dopamine D2L; type: biochemical
T6 construct: expressed in transfected cells; host or cells: CHO-K1 (membrane extracts)
T6 sequence (P14416 whole entry): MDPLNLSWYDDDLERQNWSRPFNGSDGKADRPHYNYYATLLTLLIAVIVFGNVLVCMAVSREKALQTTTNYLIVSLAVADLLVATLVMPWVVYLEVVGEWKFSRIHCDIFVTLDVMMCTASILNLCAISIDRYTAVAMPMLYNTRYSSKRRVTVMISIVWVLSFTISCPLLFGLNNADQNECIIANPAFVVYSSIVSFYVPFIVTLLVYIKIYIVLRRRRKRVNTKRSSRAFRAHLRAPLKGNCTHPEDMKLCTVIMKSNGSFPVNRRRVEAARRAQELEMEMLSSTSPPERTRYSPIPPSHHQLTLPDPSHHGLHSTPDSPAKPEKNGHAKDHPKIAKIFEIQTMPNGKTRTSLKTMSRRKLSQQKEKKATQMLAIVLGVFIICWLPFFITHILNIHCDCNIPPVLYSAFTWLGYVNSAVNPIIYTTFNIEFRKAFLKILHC
Protocol: as §1, §2, §3

Serotonin 5-HT1D = biological target: T7, Serotonin 5-HT1D (Homo sapiens, UniProt P28221); experiment: GTPγ[35S] assay, serotonin 5-HT1D; type: biochemical; conditions: CHO-K1 human receptor membranes, agonist mode; read-out: Activity (Agonism: EC50), 5-HT1D
T7 construct: expressed in transfected cells; host or cells: CHO-K1 (membrane extracts)
T7 sequence (P28221 whole entry): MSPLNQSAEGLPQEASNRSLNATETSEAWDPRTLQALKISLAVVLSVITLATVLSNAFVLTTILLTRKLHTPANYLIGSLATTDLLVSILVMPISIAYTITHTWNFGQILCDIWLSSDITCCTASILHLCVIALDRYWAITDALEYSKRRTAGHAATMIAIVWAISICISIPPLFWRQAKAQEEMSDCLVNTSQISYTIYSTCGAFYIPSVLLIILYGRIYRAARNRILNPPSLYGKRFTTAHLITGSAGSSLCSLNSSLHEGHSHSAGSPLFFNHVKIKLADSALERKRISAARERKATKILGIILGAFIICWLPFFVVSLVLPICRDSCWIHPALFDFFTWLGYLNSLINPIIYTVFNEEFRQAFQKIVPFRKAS
Protocol: as §1, §2, §3

Orexin (OX1/OX2) = experiment: Aequorin assays, orexin receptors; type: cell-based; conditions: CHO-AEQ, human receptors
Protocol: as §1, §4, §5, §6

Dopamine D3 = biological target: T8, Dopamine D3 (Homo sapiens, UniProt P35462); experiment: GTPγ[35S] assay, dopamine D3; type: biochemical
T8 construct: expressed in transfected cells; host or cells: CHO-K1 (membrane extracts)
T8 sequence (P35462 whole entry): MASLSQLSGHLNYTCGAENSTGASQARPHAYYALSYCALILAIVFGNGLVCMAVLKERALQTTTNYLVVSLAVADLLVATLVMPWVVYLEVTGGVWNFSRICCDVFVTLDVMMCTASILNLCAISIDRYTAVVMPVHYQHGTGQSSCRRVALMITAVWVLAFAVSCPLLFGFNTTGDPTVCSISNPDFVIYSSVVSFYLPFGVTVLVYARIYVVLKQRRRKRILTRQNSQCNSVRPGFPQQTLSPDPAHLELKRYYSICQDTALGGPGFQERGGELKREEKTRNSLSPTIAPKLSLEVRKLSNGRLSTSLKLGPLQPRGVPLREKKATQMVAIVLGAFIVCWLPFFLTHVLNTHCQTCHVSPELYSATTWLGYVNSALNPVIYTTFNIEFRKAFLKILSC
Protocol: as §1, §2, §3

Adenosine A2a = biological target: T9, Adenosine A2a (Homo sapiens, UniProt P29274); experiment: cAMP HTRF assay, adenosine A2a; type: cell-based; conditions: HEK293, human receptor
T9 construct: expressed in transfected cells
T9 sequence (P29274 whole entry): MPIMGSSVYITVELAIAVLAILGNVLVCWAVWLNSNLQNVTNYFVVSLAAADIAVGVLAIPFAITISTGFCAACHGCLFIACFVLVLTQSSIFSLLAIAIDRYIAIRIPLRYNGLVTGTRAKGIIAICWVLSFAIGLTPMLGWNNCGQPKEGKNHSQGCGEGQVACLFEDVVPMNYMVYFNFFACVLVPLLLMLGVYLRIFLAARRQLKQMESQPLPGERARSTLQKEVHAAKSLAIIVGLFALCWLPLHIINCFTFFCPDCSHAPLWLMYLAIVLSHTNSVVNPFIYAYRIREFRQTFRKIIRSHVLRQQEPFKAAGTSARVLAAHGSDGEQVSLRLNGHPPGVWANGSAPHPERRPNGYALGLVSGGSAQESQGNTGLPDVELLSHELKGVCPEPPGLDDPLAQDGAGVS
Protocol: as §1, §7
as §7, with “(Gi)” for “(Gs)”

Adrenergic α1D = biological target: T10, Adrenergic α1D (Homo sapiens, UniProt P25100); experiment: Aequorin agonist/antagonist assay, adrenergic α1D; type: cell-based; conditions: CHO-K1 mAeq, human receptor, antagonist mode; read-out: Activity (Antagonism: IC50), Adrenergic a1D
T10 construct: expressed in transfected cells; host or cells: CHO-K1 mAeq
T10 sequence (P25100 whole entry): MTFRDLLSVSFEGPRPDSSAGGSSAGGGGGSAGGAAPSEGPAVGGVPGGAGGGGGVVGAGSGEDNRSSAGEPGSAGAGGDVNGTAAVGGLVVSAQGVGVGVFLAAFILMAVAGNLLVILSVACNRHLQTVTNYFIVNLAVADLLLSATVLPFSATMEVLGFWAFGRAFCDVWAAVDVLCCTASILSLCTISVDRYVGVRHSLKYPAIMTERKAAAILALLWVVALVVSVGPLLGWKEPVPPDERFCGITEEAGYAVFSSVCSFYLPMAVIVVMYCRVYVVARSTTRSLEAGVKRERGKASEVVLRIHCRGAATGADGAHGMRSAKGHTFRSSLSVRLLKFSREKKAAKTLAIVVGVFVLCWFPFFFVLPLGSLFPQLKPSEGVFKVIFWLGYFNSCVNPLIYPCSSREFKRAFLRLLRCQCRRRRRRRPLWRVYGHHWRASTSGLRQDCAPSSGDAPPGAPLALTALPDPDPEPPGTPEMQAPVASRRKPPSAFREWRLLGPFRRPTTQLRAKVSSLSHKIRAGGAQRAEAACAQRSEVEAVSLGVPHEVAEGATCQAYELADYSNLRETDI
Protocol: as §1, §4, §5, §6

Dopamine D1 = biological target: T11, Dopamine D1 (Homo sapiens, UniProt P21728); experiment: cAMP HTRF assay, dopamine D1; type: cell-based; conditions: CHO-K1, human receptor, agonist mode; read-out: Activity (Agonism: EC50), D1
T11 construct: expressed in transfected cells; host or cells: CHO-K1
Protocol: as §1, §7
as §7, with “(Gi)” for “(Gs)”

[1] = tested on: VIP/PACAP (PAC1/VPAC/VPAC2); experiment: Aequorin assays, VIP/PACAP receptors; type: cell-based; conditions: CHO-AEQ, human receptors
Protocol: as §1, §4, §5, §6

Calcitonin (AM1/AM2) = experiment: cAMP HTRF assays, calcitonin AM1/AM2 receptors; type: cell-based; conditions: CHO-K1, human receptors
Protocol: as §1, §7
as §7, with “(Gi)” for “(Gs)”

mGlu7 = biological target: T12, mGlu7 (Homo sapiens, UniProt Q14831); experiment: cAMP HTRF assay, mGluR7; type: cell-based; conditions: CHO-K1, human receptor, agonist mode; read-out: Activity (Agonism: EC50), mGlu7
T12 construct: expressed in transfected cells; host or cells: CHO-K1
Protocol: as §1, §7
as §7, with “(Gi)” for “(Gs)”

Adrenergic α1B = biological target: T13, Adrenergic α1B (Homo sapiens, UniProt P35368); experiment: Aequorin agonist/antagonist assay, adrenergic α1B; type: cell-based; conditions: CHO-K1 mAeq, human receptor, antagonist mode; read-out: Activity (Antagonism: IC50), Adrenergic a1B
T13 construct: expressed in transfected cells; host or cells: CHO-K1 mAeq
Protocol: as §1, §4, §5, §6

[2] = tested on: Cholecystokinin (CCK1/CCK2); experiment: Aequorin assays, cholecystokinin receptors; type: cell-based; conditions: CHO-AEQ, human receptors
Protocol: as §1, §4, §5, §6

Opioid (OP1/OP2/OP3) = experiment: GTPγ[35S] assays, opioid receptors; type: biochemical; conditions: CHO-K1 human receptor membranes
Protocol: as §1, §2, §3

Adrenergic α2A = biological target: T14, Adrenergic α2A (Homo sapiens, UniProt P08913); experiment: GTPγ[35S] assay, adrenergic α2A; type: biochemical; conditions: CHO-K1 human receptor membranes, antagonist mode; read-out: Activity (Antagonism: IC50), Adrenergic a2A
T14 construct: expressed in transfected cells; host or cells: CHO-K1 (membrane extracts)
Protocol: as §1, §2, §3

Serotonin 5-HT3 = biological target: T15, Serotonin 5-HT3 (Homo sapiens, UniProt P46098); experiment: Aequorin assay, serotonin 5-HT3; type: cell-based; conditions: HEK-293 mAeq, human receptor, antagonist mode; read-out: Activity (Antagonism: IC50), 5-HT3
T15 construct: expressed in transfected cells; host or cells: HEK-293 mAeq
Protocol: as §1, §4, §5, §6

Serotonin 5-HT1A = biological target: T16, Serotonin 5-HT1A (Homo sapiens, UniProt P08908); experiment: GTPγ[35S] assay, serotonin 5-HT1A; type: biochemical
T16 construct: expressed in transfected cells; host or cells: CHO-K1 (membrane extracts)
T16 sequence (P08908 whole entry): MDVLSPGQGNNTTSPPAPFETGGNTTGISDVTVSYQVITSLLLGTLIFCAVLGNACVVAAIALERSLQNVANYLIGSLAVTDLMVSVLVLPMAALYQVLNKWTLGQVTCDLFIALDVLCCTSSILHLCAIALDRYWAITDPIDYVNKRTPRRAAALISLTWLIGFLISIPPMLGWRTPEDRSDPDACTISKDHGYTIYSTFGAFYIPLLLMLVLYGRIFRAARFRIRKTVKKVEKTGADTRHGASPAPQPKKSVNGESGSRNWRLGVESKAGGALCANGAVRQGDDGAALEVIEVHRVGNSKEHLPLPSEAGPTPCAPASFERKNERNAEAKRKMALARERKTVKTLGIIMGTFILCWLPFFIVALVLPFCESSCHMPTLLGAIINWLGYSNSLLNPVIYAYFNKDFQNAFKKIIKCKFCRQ
Protocol: as §1, §2, §3

Somatostatin (SST1~SSTS) = experiment: GTPγ[35S] assays, somatostatin receptors; type: biochemical; conditions: CHO-K1 human receptor membranes
Protocol: as §1, §2, §3

Adrenergic α2C = biological target: T17, Adrenergic α2C (Homo sapiens, UniProt P18825); experiment: GTPγ[35S] assay, adrenergic α2C; type: biochemical; conditions: CHO-K1 human receptor membranes, antagonist mode; read-out: Activity (Antagonism: IC50), Adrenergic a2C
T17 construct: expressed in transfected cells; host or cells: CHO-K1 (membrane extracts)
T17 sequence (P18825 whole entry): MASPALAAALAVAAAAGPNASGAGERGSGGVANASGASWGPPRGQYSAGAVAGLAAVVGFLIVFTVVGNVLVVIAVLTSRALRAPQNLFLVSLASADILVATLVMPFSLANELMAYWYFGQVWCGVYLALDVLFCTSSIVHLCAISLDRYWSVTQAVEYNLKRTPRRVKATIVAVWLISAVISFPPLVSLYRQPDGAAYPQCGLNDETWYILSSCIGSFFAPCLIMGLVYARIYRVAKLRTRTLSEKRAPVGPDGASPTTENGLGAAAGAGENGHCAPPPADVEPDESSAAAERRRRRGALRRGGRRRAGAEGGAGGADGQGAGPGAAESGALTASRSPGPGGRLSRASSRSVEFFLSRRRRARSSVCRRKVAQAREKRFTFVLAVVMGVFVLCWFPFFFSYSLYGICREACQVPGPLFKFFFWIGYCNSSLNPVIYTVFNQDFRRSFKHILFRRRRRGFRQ
Protocol: as §1, §2, §3

Adrenergic α1A = biological target: T18, Adrenergic α1A (Homo sapiens, UniProt P35348); experiment: Aequorin agonist/antagonist assay, adrenergic α1A; type: cell-based; conditions: CHO-K1 mAeq, human receptor, antagonist mode; read-out: Activity (Antagonism: IC50), Adrenergic a1A
T18 construct: expressed in transfected cells; host or cells: CHO-K1 mAeq
T18 sequence (P35348 whole entry): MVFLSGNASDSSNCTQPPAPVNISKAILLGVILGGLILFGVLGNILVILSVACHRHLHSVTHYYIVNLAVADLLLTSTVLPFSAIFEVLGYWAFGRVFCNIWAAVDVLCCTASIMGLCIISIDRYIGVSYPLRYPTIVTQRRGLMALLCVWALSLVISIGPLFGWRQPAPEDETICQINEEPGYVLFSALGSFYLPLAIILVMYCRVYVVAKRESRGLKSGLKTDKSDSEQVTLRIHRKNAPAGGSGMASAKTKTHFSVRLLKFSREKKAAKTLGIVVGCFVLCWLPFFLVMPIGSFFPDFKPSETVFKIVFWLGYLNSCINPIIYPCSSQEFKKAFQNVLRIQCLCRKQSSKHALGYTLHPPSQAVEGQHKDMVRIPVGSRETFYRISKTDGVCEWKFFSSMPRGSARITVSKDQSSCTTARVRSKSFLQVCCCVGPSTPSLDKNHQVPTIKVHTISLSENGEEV
Protocol: as §1, §4, §5, §6

Calcitonin (CGRP) = biological target: T19, Calcitonin (CGRP) (Homo sapiens, UniProt O60894+Q16602); experiment: Aequorin assay, CGRP receptor; type: cell-based; conditions: CHO-AEQ
T19 construct: expressed in transfected cells; host or cells: CHO-AEQ
Protocol: as §1, §4, §5, §6

Serotonin 5-HT2B = biological target: T20, Serotonin 5-HT2B (Homo sapiens, UniProt P41595); experiment: Aequorin assay, serotonin 5-HT2B; type: cell-based
T20 construct: expressed in transfected cells; host or cells: CHO-K1 mAeq Gα16
T20 sequence (P41595 whole entry): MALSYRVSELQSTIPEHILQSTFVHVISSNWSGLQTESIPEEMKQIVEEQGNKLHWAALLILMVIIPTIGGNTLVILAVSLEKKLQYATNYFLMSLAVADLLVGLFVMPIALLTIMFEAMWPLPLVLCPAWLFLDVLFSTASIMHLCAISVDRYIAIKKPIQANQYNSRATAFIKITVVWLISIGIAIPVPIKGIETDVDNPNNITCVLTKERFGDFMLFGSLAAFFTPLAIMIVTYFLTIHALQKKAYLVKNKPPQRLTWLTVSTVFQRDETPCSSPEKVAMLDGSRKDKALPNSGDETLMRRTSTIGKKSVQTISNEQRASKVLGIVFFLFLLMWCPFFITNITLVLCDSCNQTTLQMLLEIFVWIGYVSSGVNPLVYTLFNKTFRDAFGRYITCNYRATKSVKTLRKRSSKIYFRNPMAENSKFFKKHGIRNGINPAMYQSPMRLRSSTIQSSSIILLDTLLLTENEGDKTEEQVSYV
Protocol: as §1, §4, §5, §6

T1 sequence (P18089 whole entry): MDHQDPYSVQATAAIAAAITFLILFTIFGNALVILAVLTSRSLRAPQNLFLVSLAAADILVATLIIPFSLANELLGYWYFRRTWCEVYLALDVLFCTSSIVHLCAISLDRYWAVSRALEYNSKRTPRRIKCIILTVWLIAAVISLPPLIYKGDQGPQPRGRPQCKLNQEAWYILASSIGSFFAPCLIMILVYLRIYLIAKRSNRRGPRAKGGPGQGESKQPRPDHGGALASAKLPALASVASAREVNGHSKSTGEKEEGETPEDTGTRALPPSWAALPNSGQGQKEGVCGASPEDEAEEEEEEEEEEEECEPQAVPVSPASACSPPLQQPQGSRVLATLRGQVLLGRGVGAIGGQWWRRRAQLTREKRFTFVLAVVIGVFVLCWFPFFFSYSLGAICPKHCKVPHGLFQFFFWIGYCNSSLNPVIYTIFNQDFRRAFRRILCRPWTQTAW

CC[C@@H](CO)NC(=O)[C@@H]1C=C2c3cccc4[nH]c(C(F)(F)F)c(c34)C[C@H]2N(C)C1 [2-CF3-sergide] was tested, and the IC50 (Adrenergic α2B) was greater than 1000 nM, the IC50 (Dopamine D4; CHO-K1 human receptor membranes, antagonist mode, read-out: Activity (Antagonism: IC50), D4) was greater than 1000 nM and the “Receptor activity at the D4 dopaminergic receptor (in words)” value (Dopamine D4; summary of Table 2) was “receptor antagonism”. For the same compound, the EC50 (Serotonin 5-HT2A) was 1100 nM, the EC50 (Serotonin 5-HT1B) was 128 nM and the EC50 (Serotonin 5-HT1F) was 254 nM. The IC50 (Neurokinin (NK1/NK2/NK3)) was greater than 1000 nM, the IC50 (Dopamine D2L; CHO-K1 human receptor membranes, antagonist mode, read-out: Activity (Antagonism: IC50), D2L) was greater than 1000 nM and the “Receptor activity at the D2L dopaminergic receptor (in words)” value (Dopamine D2L; summary of Table 2) was “receptor antagonism”. For the same compound, the EC50 (Serotonin 5-HT1D) was 98 nM, the “Activity (Agonism: EC50; Antagonism: IC50), Orexin (OX1/OX2)” value (Orexin (OX1/OX2)) was “Inactive” and the IC50 (Dopamine D3; CHO-K1 human receptor membranes, antagonist mode, read-out: Activity (Antagonism: IC50), D3) was greater than 1000 nM. For the same compound, the “Receptor activity at the D3 dopaminergic receptor (in words)” value (Dopamine D3; summary of Table 2) was “receptor antagonism”, the “Activity (Agonism: EC50; Antagonism: IC50), Adenosine A2a” value (Adenosine A2a) was “Inactive” and the IC50 (Adrenergic α1D) was 38 nM. For the same compound, the EC50 (Dopamine D1) was 257 nM, the “Activity (Agonism: EC50; Antagonism: IC50), VIP/PACAP (PAC1/VPAC/VPAC2)” value [1] was “Inactive” and the “Activity (Agonism: EC50; Antagonism: IC50), Calcitonin (AM1/AM2)” value (Calcitonin (AM1/AM2)) was “Inactive”. The EC50 (mGlu7) was 46.5 nM, the IC50 (Adrenergic α1B) was greater than 1000 nM and the “Activity (Agonism: EC50; Antagonism: IC50), Cholecystokinin (CCK1/CCK2)” value [2] was “Inactive”. The “Activity (Agonism: EC50; Antagonism: IC50), Opioid (OP1/OP2/OP3)” value (Opioid (OP1/OP2/OP3)) was “Inactive”, the IC50 (Adrenergic α2A) was greater than 10000 nM and the IC50 (Serotonin 5-HT3) was greater than 1000 nM. For the same compound, the EC50 (Serotonin 5-HT1A; CHO-K1 human receptor membranes, agonist mode, read-out: Activity (Agonism: EC50), 5-HT1A) was 258 nM, the “Receptor activity on the 5-HT1A receptor (in words)” value (Serotonin 5-HT1A; summary of Table 2) was “agonistic activity” and the “Activity (Agonism: EC50; Antagonism: IC50), Somatostatin (SST1~SSTS)” value (Somatostatin (SST1~SSTS)) was “Inactive”. For the same compound, the IC50 (Adrenergic α2C) was greater than 10000 nM, the IC50 (Adrenergic α1A) was greater than 10000 nM and the “Activity (Agonism: EC50; Antagonism: IC50), Calcitonin (CGRP)” value (Calcitonin (CGRP)) was “Inactive”. The IC50 (Serotonin 5-HT2B; CHO-K1 mAeq Gα16, human receptor, antagonist mode, read-out: Activity (Antagonism: IC50), 5-HT2B) was 42 nM and the “Receptor activity at the 5-HT2B receptor (in words)” value (Serotonin 5-HT2B; summary of Table 2) was “full receptor antagonism”.
